The nature of series [1]: Form A and Form B inter-conversion study (competitive slurry, XRPD). It counts as physicochemical. Here is the method:
Competitive slurry experiments were conducted to evaluate the relative stability of Form A and Form B. Inter-conversion study was performed at room temperature and 50° C. using single and binary solvents listed in the Table 1 below. About 80 mg (100 mg for 50° C.) of Form A and Form B (1:1, w/w) was weighed into sample vials (8 mL) and then 3 mL (2 mL for 50° C.) of solvents were added to each vial. The obtained suspensions were kept stirring for 7 days at room temperature and 50° C., then filtered at specified time. The wet and dried solids were analyzed by XRPD (dried in vacuum oven at 45° C.).
Form B was dominant in tested solvent systems with water activity below 0.15 at room temperature (24˜27° C.). […] Pure Form A and Form B were stable during drying process (50° C., vacuum) for at least 2 days.

Series [2] is described as follows: Solubility in bio-relevant media. To be noted: for solubility at 24 h: salts; for pH value: solubility sample of salt. Type of series: physicochemical.

`C=CC(=O)Nc1cc(Nc2nccc(Nc3cc(Cl)c(F)cc3C(C)(C)O)n2)c(OC)cc1N1CC[C@@H](N(C)C)C1` [Form A and Form B (1:1, w/w), (R)-N-(5-((4-((5-chloro-4-fluoro-2-(2-hydroxypropan-2-yl)phenyl)amino)pyrimidin-2-yl)amino)-2-(3-(dimethylamino)pyrrolidin-1-yl)-4-methoxyphenyl)acrylamide]: the “XRPD results of slurry” value in series [1] (1% water/acetone, 24~27° C., 1 d, after dry) is listed as “A + B”; in series [1] (1% water/acetone, 24~27° C., 1 d, before dry) it was “A + B”; in series [1] (1% water/acetone, 24~27° C., 3 d, after dry), “A + B”; in series [1] (1% water/acetone, 24~27° C., 3 d, before dry) it was “A + B”; in series [1] (1% water/acetone, 24~27° C., 7 d, before dry), “A + B(increased)”; in series [1] (30% water/acetone, 24~27° C., 1 d, after dry), “A + B”. The “XRPD results of slurry” value is reported as “A + B” in series [1] (30% water/acetone, 24~27° C., 1 d, before dry); “A + B” in series [1] (30% water/acetone, 24~27° C., 7 d, before dry); “A + B” in series [1] (30% water/acetone, 50° C., 1 d, after dry); “A + B” in series [1] (30% water/acetone, 50° C., 1 d, before dry); “A (minor) + B” in series [1] (Acetone (no water), 50° C., 1 d, before dry); “A + B” in series [1] (Acetone(no water), 24~27° C., 1 d, after dry). For the same compound, the “XRPD results of slurry” value in series [1] (Acetone(no water), 24~27° C., 1 d, before dry) is given as “A + B”; in series [1] (Acetone(no water), 24~27° C., 3 d, after dry) it was “A + B”; in series [1] (Acetone(no water), 24~27° C., 3 d, before dry) it was “A + B”; in series [1] (Acetone(no water), 24~27° C., 7 d, before dry), “A + B(increased)”; in series [1] (EtOH/IPA (1/1), 24~27° C., 1 d, after dry), “A + B”; in series [1] (EtOH/IPA (1/1), 24~27° C., 1 d, before dry) it was “A + B”. The “XRPD results of slurry” value is listed as “A + B(increased)” in series [1] (EtOH/IPA (1/1), 24~27° C., 7 d, before dry); “A + B” in series [1] (EtOH/IPA (7/2), 24~27° C., 1 d, after dry); “A + B” in series [1] (EtOH/IPA (7/2), 24~27° C., 1 d, before dry); “A + B(increased)” in series [1] (EtOH/IPA (7/2), 24~27° C., 7 d, before dry); “A + B” in series [1] (EtOH/water (1/1), 24~27° C., 1 d, after dry); “A + B” in series [1] (EtOH/water (1/1), 24~27° C., 1 d, before dry). For the same compound, the “XRPD results of slurry” value is listed as “A + B” in series [1] (EtOH/water (1/1), 24~27° C., 7 d, before dry); “A + B” in series [1] (Water, 24~27° C., 1 d, after dry); “A + B” in series [1] (Water, 24~27° C., 1 d, before dry); “A + B” in series [1] (Water, 24~27° C., 3 d, after dry); “A + B” in series [1] (Water, 24~27° C., 3 d, before dry); “A + B” in series [1] (Water, 24~27° C., 7 d, before dry). Further, the “XRPD results of slurry” value in series [1] (Water, 50° C., 1 d, after dry) is “A + B”; in series [1] (Water, 50° C., 1 d, before dry), “A + B”; in series [1] (Water, 50° C., 3 d, after dry), “A + B”; in series [1] (Water, 50° C., 3 d, before dry), “A + B”; in series [1] (Water, 50° C., 7 d, before dry), “A + B”.
In general, solubility refers to the concentration that dissolves in the medium under given conditions. Regarding `C=CC(=O)Nc1cc(Nc2nccc(Nc3cc(Cl)c(F)cc3C(C)(C)O)n2)c(OC)cc1N1CC[C@@H](N(C)C)C1.Cl` [Hydrochloric acid salt, (R)—N-(5-((4-((5-chloro-4-fluoro-2-(2-hydroxypropan-2-yl)phenyl)amino)pyrimidin-2-yl)amino)-2-(3-(dimethylamino)pyrrolidin-1-yl)-4-methoxyphenyl)acrylamide Hydrochloride], the solubility at 24 h was 1.95 mg/mL in series [2] (FaSSIF); above 11.1 mg/mL in series [2] (FeSSIF); 11.8 mg/mL in series [2] (SGF, simulated gastric fluid). The pH value in series [2] (FaSSIF) worked out at 6.62; in series [2] (FeSSIF) it was 5.44; in series [2] (SGF) it was 5.65.
For `C=CC(=O)Nc1cc(Nc2nccc(Nc3cc(Cl)c(F)cc3C(C)(C)O)n2)c(OC)cc1N1CC[C@@H](N(C)C)C1.O=C(O)/C=C/C(=O)O` [Fumaric acid salt, (R)—N-(5-((4-((5-chloro-4-fluoro-2-(2-hydroxypropan-2-yl)phenyl)amino)pyrimidin-2-yl)amino)-2-(3-(dimethylamino)pyrrolidin-1-yl)-4-methoxyphenyl)acrylamide fumarate], the solubility at 24 h in series [2] (FaSSIF) was above 10.1 mg/mL; in series [2] (FeSSIF) it was above 9.75 mg/mL; in series [2] (SGF, simulated gastric fluid), above 12.2 mg/mL. The pH value is given as 5.22 in series [2] (FaSSIF), 4.94 in series [2] (FeSSIF) and 3.98 in series [2] (SGF).

These data come from patent US20250197377A1, “NOVEL PHARMACEUTICAL SALTS AND POLYMORPHIC FORMS OF AN ERBB AND BTK INHIBITOR” (DIZAL (JIANGSU) PHARMACEUTICAL CO., LTD., priority 2021, published 2025).
